Reference: patent publication US20140323346A1, “BINDING AGENT” (Garvan Institute of Medical Research, priority 2011, published 2014)

What was measured:
[1] = tested on: protein kinases in MDA-MB-231 breast cancer cell lysates; assay: Affinity purification of kinases from MDA-MB-231 cell lysates on inhibitor resins, bound proteins identified by LC-MS/MS; format: binding, Homo sapiens; conditions: MDA-MB-231 lysate
Description: MDA-MB-231 cells were cultured in RPMI1640 (Invitrogen) supplemented with 10% fetal bovine serum (Invitrogen) and insulin at 0.25 IU/ml. Subconfluent cells were lysed with ice-cold lysis buffer containing 50 mM HEPES-NaOH (pH 7.5), 150 mM NaCl, 0.5% Triton X-100, 1 mM EDTA 1 mM EGTA supplemented with additives (10 μg/ml aprotinin, 10 μg/ml leupeptin, 1 mM PMSF, 10 mM NaF, 50 ng/ml calyculin A, 1% phosphatase inhibitor mixture 3 (Sigma), and 2.5 mM Na3VO4) for 5 min on ice. Cell debris was removed by centrifugation at 16,500 g at 4° C. for 30 min and the supernatant was subsequently filtered through a 0.45 μm PVDF membrane (Millipore). Protein concentrations were measured by the Bradford assay (Bio-Rad).
Kinase inhibitors Purvalanol B (Tocris) and SU6668 (Biochempartner Chemical) were immobilized to EAH-sepharose 4B (GE Healthcare) and VI16832 (Evotec) was coupled to ECH-sepharose 4B (GE Healthcare) beads via a carbodiimide-mediated reaction. Briefly, 1 ml of beads were washed 3 times with 10 ml of 0.5 M NaCl, twice with 10 ml H2O and once with coupling buffer made of 50% dimethylformamide (DMF) and 50% ethanol. The washed and aspirated beads were then mixed with 1 ml of inhibitor solution (Purvalanol B at 10 mM, SU6668 at 10 mM and VI16832 at 3 mM dissolved in coupling buffer), followed by dropwise addition of 150 μl of 1 M N-(3-dimethylaminopropyl)-N-ethylcarbodiimide hydrochloride (EDC) in coupling buffer.
The coupling reaction was carried out in the dark at room temperature overnight on a rotating wheel. To block the remaining reactive groups, the resin was washed twice with 2 ml of coupling buffer followed by addition of 1 ml of DMF/ethanol/ethanolamine at ratio 1:1:1 (pH 8). The reaction was initiated by dropwise addition of 150 μl of 1 M EDC in coupling buffer and the mixture was then incubated again in the dark at room temperature overnight with gentle agitation. Subsequently the resin was washed 3 times with 10 ml of coupling buffer, twice with 10 ml of 0.5 M NaCl and once with 10 ml of 20% ethanol. The resin was stored in 20% ethanol as a suspension at 4° C. in the dark. For CTx-0294885 immobilization, activated CH Sepharose 4B (GE Healthcare) (0.5 g) was swelled with 20 ml of 1 mM HCl and collected by vacuum filtration. The collected resin was washed 4 times with 20 ml of 1 mM HCl, and mixed with 3 ml of CTx-0294885 (9 mM) dissolved in 50% DMF 50% 100 mM sodium bicarbonate (pH 8). The suspension was agitated on a shaker table for 18 h. The mixture was washed with 5 ml of 50% aqueous DMF and the resin was resuspended in IM ethanolamine in 50% aqueous DMF. The mixture was agitated for 1 h before the resin was collected by filtration and washed 5 times with 5 ml of 50% aqueous DMF, 10 times with 10 ml of 0.1 M acetate buffer (pH 4), 10 times with 10 ml of 0.1 M bicarbonate buffer (pH 8), and 10 times of 10 ml 20% ethanol. The resin was resuspended in 10 ml of 20% ethanol and stored at 4° C. An equally suitable alternative protocol for CTx-0294885 immobilization is described in Example 2.
The salt concentration in the protein lysates was adjusted to 1 M NaCl and the kinase inhibitor resins were washed once with 10 ml of H2O and once with 10 ml of washing buffer A (lysis buffer with 1 M NaCl plus 10 mM NaF and 0.1 mM Na3VO4) prior to kinase enrichment. For testing of single kinase inhibitors, 1 ml of inhibitor resin was incubated with 50 mg of protein lysates, and for multi-inhibitor resins, a cocktail comprising 1 ml of each inhibitor resin was used for incubation with 100 mg of protein lysates. After 2 h of incubation at 4° C. in the dark on a rotating wheel, the resins were washed twice with 10 ml of washing buffer A, once with 10 ml of washing buffer B (same as washing buffer A except NaCl concentration is 150 mM instead of 1 M) and once with washing buffer C (50 mM HEPES, 10 mM NaF and 0.1 mM Na3VO4). […]

[2] = tested on: protein kinases from three different cell lines; conditions: cited from earlier work

Row | SMILES | proteins identified ([1]; CTx-0294885 coupled to CL sepharose 4B beads, single resin) | kinases of the RGC (receptor guanylate cyclase) family identified ([1]; FIG. 2A) | major kinase subgroups with representatives identified ([1]; FIG. 2A) | relative enrichment of kinase families ([1]; FIG. 2B) | kinases bound that are not bound by the other reagents (P, S, V) ([1]; comparison with purvalanol B, SU6668 and VI16832 columns) | enrichment of non-protein kinases ([1]; gene ontology analysis, FIG. 2C) | kinase identifications if phosphosites are included (kinases bound) ([1]; single resin) | kinases identified among the proteins identified ([1]; single resin, phosphosites not included) | protein kinases detected in total [2]
1 | CNC(=O)c1ccccc1Nc1nc(Nc2ccc(N3CCNCC3)cc2)ncc1Cl [CTx-0294885, 2-((5-Chloro-2-((4-(piperazin-1-yl)phenyl)amino)pyrimidin-4-yl)amino)-N-methylbenzamide] | 2546 | No kinases from the minor RGC (receptor guanylate cyclase) family were identified | 9 | particularly strong enrichment for kinases of the STE, CMGC and AGC subfamilies | 77 | enrichment for other purine nucleotide binding proteins | 240 | 185 | –
2 | NCCOc1ccc(Nc2ncc3ccc(=O)n(C4CC5CCC4C5)c3n2)cc1 (stereo not drawn) [VI16832] | – | – | – | – | – | – | – | – | 170
